Experimental findings from patent US20220125837A1, “METHODS FOR CONTROLLED ELIMINATION OF THERAPEUTIC CELLS” (Bellicum Pharmaceuticals, Inc., priority 2014, published 2022) are described below.

For data set [1], the system named is iCasp9M.IRES.GFPhigh-transduced CTLs. Briefly: SCID mouse-human xenograft: elimination of iCasp9M CTLs by CID. The data set is classed as in vivo, NOD/SCID mice. The settings on record: single dose of CID (50 μg AP20187 intraperitoneally), three days after. As to the method: Non-obese diabetic severe combined immunodeficient (NOD/SCID) mice, 6 to 8 weeks of age, were irradiated (250 rad) and injected subcutaneously in the right flank with 10×10^6 to 15×10^6 LCLs resuspended in Matrigel (BD Bioscience). Two weeks later mice bearing tumors that were approximately 0.5 cm in diameter were injected into the tail vein with a 1:1 mixture of nontransduced and iCasp9.I.GFPhigh-transduced EBV CTLs (total 15×10^6). At 4 to 6 hours prior and 3 days after CTL infusion, mice were injected intraperitoneally with recombinant hIL-2 (2000 U; Proleukin; Chiron). […] By FACS analysis, the number of GFP+ cells within the gated CD3^+ population was evaluated. […]
The function of iCasp9M also was evaluated in transduced EBV-CTLs in vivo. […] Three days after CID/carrier administration, tumors were analyzed for human CD3^+/GFP^+ cells. […]
The function of iCasp9M in vivo, was assayed. […] On day 3 after CTL administration, mice received either CID (50 μg AP20187; (black diamonds, n=6) or carrier only (black squares, n=5) and on day 6 the presence of human CD3+/GFP+ T cells in the tumors was analyzed. Human CD3+ T cells isolated from the tumors of a control group of mice that received only nontransduced CTLs (15×10^6 CTLs; n=4) were used as a negative control for the analysis of CD3+/GFP+ T cells within the tumors.
In general terms: A xenograft is tissue or cells of one species grown in another, often human tumour cells in immunodeficient mice.

In a further data set the test system is non-transduced cells. Briefly: Viability of non-transduced cells with AP20187. Format: cell-based, human. The note with it: n=6. As to the method:
Suicide gene functionality was assessed by adding a small molecule synthetic homodimerizer, AP20187 (Ariad Pharmaceuticals; Cambridge, Mass.), at 10 nM final concentration the day following CD19 immunomagnetic selection. Cells were stained with annexin V and 7-amino-actinomycin (7-AAD)(BD Pharmingen) at 24 hours and analyzed by flow cytometry. Cells negative for both annexin V and 7-AAD were considered viable, cells that were annexin V positive were apoptotic, and cells that were both annexin V and 7-AAD positive were necrotic. The percentage killing induced by dimerization was corrected for baseline viability as follows: Percentage killing=100%−(% Viability in AP20187-treated cells÷% Viability in non-treated cells).
The day following immunomagnetic selection, 10 nM of the chemical inducer of dimerization, AP20187, was added to induce apoptosis, which appeared within 24 hours.

The test system of data set [2] is gene-modified allodepleted cells (SFG.iCasp9.2A.CD19). Briefly: Suicide gene function after extended culture and reactivation. The data set is classed as cell-based, human. As to the method:
Cells were maintained in T cell medium containing 50 U/ml IL-2 until 22 days after transduction. A portion of cells was reactivated on 24-well plates coated with […] OKT3 and 1 μg/ml anti-CD28 (Clone CD28.2, BD Pharmingen, San Jose, Calif.) for 48 to 72 hours. CD19 expression and suicide gene function in both reactivated and non-reactivated cells were measured on day 24 or 25 post transduction.
To assess the stability of transgene expression and function, cells were maintained in T cell culture medium and low dose IL-2 (50 U/ml) until […] after transduction. A portion of cells was then reactivated with OKT3/anti-CD28. CD19 expression was analyzed by flow cytometry 48 to 72 hours later, and suicide gene function was assessed by treatment with 10 nM AP20187. The obtained are for cells from day 5 post transduction (ie, 1 day after CD 19 selection) and day 24 post transduction, with or without 48-72 hours of reactivation (5 experiments). In 2 experiments, CD25 selection was performed after OKT3/aCD28 activation to further enrich activated cells. Error bars represent standard deviation. * indicates p<0.05 when compared to cells from day 5 post transduction. By day 24, surface CD19 expression fell from about 98%±1% to about 88%±4% (p<0.05) with a parallel decrease in mean fluorescence intensity (MFI) from 793±128 to 478±107 (p<0.05) (see FIG. 13B). Similarly, there was a significant reduction in suicide gene function: residual viability was 19.6±5.6% following treatment with AP20187; after correction for baseline viability of 54.8±20.9%, this equated to killing efficiency of only 63.1±6.2%.
To determine whether the decrease in transgene expression with time was due to reduced transcription following T cell quiescence or to elimination of transduced cells, a portion of cells were reactivated on day 22 post transduction with OKT3 and anti-CD28 antibody. […] CD19 expression increased from about 88%±4% to about 93%±4% (p<0.01) and CD19 MFI increased from 478±107 to 643±174 (p<0.01). […] 2±1.2%, which was the same as killing efficiency on day 5 post transduction (93.1±3.5%). Killing of the CD25 negative fraction was 78.6±9.1%.

Several values for one entry are separate records, joined by “and”; a condition that tells them apart may be missing. Equal entries are not always repeated.

With `CC[C@H](C(=O)N1CCCC[C@H]1C(=O)O[C@H](CCc1ccc(OC)c(OC)c1)c1cccc(OCC(=O)NCC(CNC(=O)COc2cccc([C@@H](CCc3ccc(OC)c(OC)c3)OC(=O)[C@@H]3CCCCN3C(=O)[C@@H](CC)c3cc(OC)c(OC)c(OC)c3)c2)CN(C)C)c1)c1cc(OC)c(OC)c(OC)c1` [AP20187], the “reduction in the number of human CD3+/GFP+ T cells in tumors vs carrier” value is over 99% in data set [1] (listed as CID) and “more than 99%” in data set [1] (listed as dimerizer). For the same molecule, the “viability of non-transduced cells with AP20187” value in the data set with non-transduced cells is “about 86%±9%”. This molecule also gave a killing in data set [2] (CD25 negative fraction) of 78.6±9.1%. The killing efficiency in data set [2] (OKT3/aCD28-reactivated cells, day 24 or 25) was ~84.6%±8.0%; in data set [2] (day 5 post transduction), 93.1±3.5%; in data set [2] (day 24 post transduction, non-reactivated) it was 63.1±6.2% and ~63.1%±6.2%. Also, the “residual viability following treatment with AP20187” value in data set [2] (day 24 post transduction, non-reactivated, 10 nM) is 19.6±5.6%.
